Where two headings read alike, the source gives them in different places.
Legend:
[1] = observations so far; cited from earlier work
pregnant rabbits = details: period of major embryonic organogenesis; cited from earlier work
[2] = test system: patients having chronic kidney disease; assay: Systolic blood pressure change from baseline, all participants (Example 3, FIG. 6, Table 10B); type: in vivo, human
[3] = test system: patients having chronic kidney disease; assay: Diastolic blood pressure change from baseline, participants having UACR >700 mg/g (FIG. 7B, Table 11B); type: in vivo, human; details: for Diastolic blood pressure, mean change from baseline: Dapa 10 mg + placebo, UACR >700 mg/g
[4] = test system: patients having chronic kidney disease; assay: Systolic blood pressure change from baseline, participants having UACR >700 mg/g (FIG. 7A, Table 11A); type: in vivo, human; details: for Systolic blood pressure, mean change from baseline: Dapa 10 mg + placebo, UACR >700 mg/g
[5] = test system: healthy volunteers and patients with type 2 diabetes; details: cited from earlier work
[6] = test system: patients having chronic kidney disease; assay: UACR change from baseline over 12 weeks (Example 3, FIG. 5); type: in vivo, human; details: dapagliflozin 10 mg alone; plateau over 12-week period; UACR>700 mg/g
[7] = test system: patients with type 2 diabetes and CKD; details: post hoc analysis of the CREDENCE trial; cited from earlier work
[8] = dapagliflozin 10 mg + placebo, end of 12-week period, UACR>700 mg/g

COc1nc(C)cnc1NS(=O)(=O)c1cccnc1-c1ccc(-c2nnco2)cc1 [zibotentan, N-(3-methoxy-5-methylpyrazin-2-yl)-2-[4-(1,3,4-oxadiazol-2-yl)phenyl]pyridine-3-sulfonamide]
Hepatotoxicity [1]: has not been observed
Dose levels causing teratogenic effects (pregnant rabbits): ≥ 1 mg/kg/day

CCOc1ccc(Cc2cc([C@@H]3O[C@H](CO)[C@@H](O)[C@H](O)[C@H]3O)ccc2Cl)cc1 [dapagliflozin, (1S)-1,5-anhydro-1-{4-chloro-3-[(4-ethoxyphenyl)methyl]phenyl}-D-glucitol]
Systolic blood pressure, mean change ([2]; Dapa 10 mg + placebo, all participants): −3.4
Decrease in systolic blood pressure from baseline ([2]; dapagliflozin 10 mg + placebo, 12-week period, all participants): 3.4%
Systolic blood pressure after final planned dose ([2]; dapagliflozin 10 mg + placebo, week 14): returned to baseline levels
Diastolic blood pressure, mean change from baseline ([3]; Week 1): −2.9
Diastolic blood pressure, mean change from baseline ([3]; Week 3): −2.4
Diastolic blood pressure, mean change from baseline ([3]; Week 6): −2.7
Diastolic blood pressure, mean change from baseline ([3]; Week 9): −2.0
Diastolic blood pressure, mean change from baseline ([3]; Week 12): −2.2
Mean reduction in diastolic blood pressure relative to baseline [3, 8]: approximately 2%
Systolic blood pressure, mean change from baseline ([4]; Week 1): −5.7
Systolic blood pressure, mean change from baseline ([4]; Week 3): −6.1
Systolic blood pressure, mean change from baseline ([4]; Week 6): −6.5
Systolic blood pressure, mean change from baseline ([4]; Week 9): −2.9
Systolic blood pressure, mean change from baseline ([4]; Week 12): −4.6
Mean reduction in systolic blood pressure from baseline [4, 8]: over 4%
Well tolerated dose ([5]; repeat dose testing for 14 days in healthy volunteers and patients with type 2 diabetes): up to 100 mg/day
Well tolerated dose ([5]; single dose testing in healthy volunteers): up to 500 mg/day
Mean percent decrease of UACR from baseline [6]: approximately 20%

Cc1ccc([C@@H]2O[C@H](CO)[C@@H](O)[C@H](O)[C@H]2O)cc1Cc1ccc(-c2ccc(F)cc2)s1 [canagliflozin]
Effect on UACR levels [7]: failed to reduce UACR levels below 300 mg/g in a substantial number of patients
